# Experimental data reported in US20250325548A1, “TUMOR SUPPRESSOR P73 TRANSCRIPTIONALLY REGULATES C-FLIP TO IMPEDE ITS PRIMING OF EXTRINSIC APOPTOSIS WHILE AN EXAMPLE SWITCHER COMPOUND CB-7587351 DEGRADES C-FLIP PROTEIN” (Brown University, priority 2024, published 2025).
# Where a SMILES comes first, the peptide text is derived from it. The star is where a group is joined. Cbz = O=C(OCc1ccccc1)*; CH2F = FC*
# Columns and labels:
# [1] = tested on: c-FLIP; experiment: Western blot of c-FLIP protein levels in cancer cells; type: cell-based, human
# Description: (§1) Western Blot analysis: An equal amount of protein in the cell lysate was loaded in each well and electrophoresed through 4-12% SDS-PAGE then transferred to a PVDF membrane. The primary antibodies indicated in the FIGs. were incubated with the PVDF membrane after transfer in blocking buffer at 4° C. overnight. Antibody binding was detected on PVDF with appropriate IR Dye-secondary antibodies (LI-COR Biosciences, USA) by the ODYSSEY infrared imaging system or with ECL Reagent (Thermo Fisher Scientific, catalog no. 32106) chemiluminescence reaction with appropriate horseradish peroxidase (HRP)-conjugated secondary antibodies (Thermo Fisher Scientific, catalog no. no. 31460 for Goad anti-rabbit IgG and catalog no. 31430 for Goat anti-mouse IgG) by the Syngene imaging system.
# [2] = molecular target: T1, p73 (Homo sapiens, UniProt O15350); conditions: via releasing it from the inhibitory complex of mutant p53; cited from earlier work
# T1 sequence (O15350 1-636): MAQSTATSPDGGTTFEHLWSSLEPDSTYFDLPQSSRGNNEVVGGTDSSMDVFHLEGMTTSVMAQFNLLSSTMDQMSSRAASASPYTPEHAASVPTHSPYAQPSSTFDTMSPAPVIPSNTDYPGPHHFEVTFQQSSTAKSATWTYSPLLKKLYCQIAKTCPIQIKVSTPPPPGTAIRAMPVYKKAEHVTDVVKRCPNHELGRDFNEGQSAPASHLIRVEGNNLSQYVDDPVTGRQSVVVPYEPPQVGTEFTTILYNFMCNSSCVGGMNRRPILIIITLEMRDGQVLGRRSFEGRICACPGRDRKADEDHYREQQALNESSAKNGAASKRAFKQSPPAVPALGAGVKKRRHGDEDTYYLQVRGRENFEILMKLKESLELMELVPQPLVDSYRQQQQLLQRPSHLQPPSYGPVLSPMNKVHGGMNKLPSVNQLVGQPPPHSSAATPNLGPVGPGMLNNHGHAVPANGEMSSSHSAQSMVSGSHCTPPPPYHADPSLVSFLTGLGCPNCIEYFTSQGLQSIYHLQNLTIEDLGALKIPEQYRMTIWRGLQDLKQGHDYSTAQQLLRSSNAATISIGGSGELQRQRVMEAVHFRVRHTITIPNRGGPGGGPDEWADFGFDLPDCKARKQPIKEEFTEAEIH
# [3] = tested on: cancer cells; experiment: Sub-G1 flow cytometric assay in cancer cells; type: cell-based, human
# Description: Flow Cytometry Assay: Briefly, cells were fixed with 70% ethanol, and stained with Propidium Iodide (PI), then subjected for CytoFLEX to measure DNA content of the PI-stained cells. Cell cycle distribution was analyzed with Flowjo.
# [4] = tested on: caspase-3/7; experiment: Caspase-3/7 activity assay; type: cell-based, human; conditions: DLD-1 cancer cells, 36 hours
# [5] = tested on: γ-H2AX; experiment: γ-H2AX phosphorylation (DNA damage) in SW480 cells; type: cell-based, human
# [6] = tested on: c-FLIP; experiment: Real-time PCR of c-FLIP mRNA in cancer cells; type: cell-based, human; conditions: cancer cells treated with CB-7587351, Real-time PCR
# [7] = tested on: DNA; experiment: DNA-intercalation test; conditions: not shown
# [8] = tested on: cancer cells; experiment: Cell viability and synergy assay with TRAIL in cancer cells; type: cell-based, human; conditions: tested doses
# Description: (§2) CellTiter-Glo luminescent Cell viability assay: Cells were seeded on 96-well plates with a density of 3000 cells/well and treated with small molecule compounds as desired for 72 hours. Cell viability was measured by CellTiter-Glo bioluminescence (Promega, catalog no. G7572), and analyzed using an IVIS imager.
# (§3) Statistical analysis: Statistical analyses were performed using the student's t-test or Anova with GraphPad Prism software. Statistical significance was determined by p<0.05. Combination indices were calculated using the Chou-Talalay method with CompuSyn software.
# [9] = tested on: panel of cancer cell lines; experiment: CellTiter-Glo cell viability, panel of cancer cell lines versus MRC-5; type: cell-based, human; conditions: cancer cells compared with normal fibroblast MRC-5 cells, 48 hr
# Description: […] Cell viability was measured by CellTiter-Glo bioluminescence (Promega, catalog no. G7572), and analyzed using an IVIS imager.
# [10] = tested on: p53 reporter, PG13-luc; experiment: PG13-luc p53-reporter bioluminescence assay; type: cell-based, human
# Description: Materials and Methods; High-Throughput Screening: Functional cell-based screening for small molecules that increase p53-transcriptional activity was performed as described in the previous study using noninvasive bioluminescence imaging in human colorectal cancer cells which stably express a p53 reporter, PG13-luc. […] DMSO treatment was used as a negative control in each screened plate. Compounds that increased p53-responsive bioluminescence were selected for secondary screening.
# [11] = tested on: caspase-3; experiment: Western blot of cleaved caspase-3; type: cell-based, human; conditions: cancer cells, early time points
# Description: as §1
# [12] = tested on: colorectal cancer cells; experiment: Colony formation assay; type: cell-based, human
# [13] = tested on: PARP; experiment: Western blot of cleaved PARP with TRAIL combination; type: cell-based, human; conditions: cancer cells
# Description: as §1
# [14] = tested on: normal cells; experiment: Cell viability and synergy assay with TRAIL in normal cells; type: cell-based; conditions: tested doses
# Description: as §2, §3
# [15] = tested on: p53 target genes; experiment: Real-time RT-PCR of p53 target genes; type: cell-based, human; conditions: SW480 cells, 3 hr, normalized to GAPDH
# [16] = tested on: p53-mutant cancer cells; experiment: Apoptosis by PARP cleavage and Annexin V after caspase knockdown; type: cell-based, human; conditions: CB-7587351 at 10 μM
# Description: Annexin V levels were measured using RealTime-Glo™ Annexin V assay kit (Promega). The bioluminescent Annexin V was analyzed using an IVIS imager.
# as §1
# Knockdown of gene expression by siRNA: Cells were transfected with siRNA using lipofectamine RNAiMAX (Life Technologies, catalog no. 13778075) as described in the protocol from the manufacturer.
# [17] = tested on: p53 targets; experiment: Western blot of endogenous p53 targets; type: cell-based, human
# Description: as §1
smiles,measurement,setting,value
"CC(C)C[C@@H](C=O)NC(=O)[C@H](CC(C)C)NC(=O)[C@H](CC(C)C)NC(=O)OCc1ccccc1 [MG132, reference compound] (Cbz-Leu-Leu-Leu-aldehyde)",c-FLIP protein under CB-7587351 plus proteasome inhibitor,[1]; cancer cells co-treated with MG132 and CB-7587351,rescued c-FLIP from the CB-7587351-induced protein degradation
"O=C(CSC1=NCCS1)c1ccc(O)c(O)c1 [RETRA, 2-(4,5-Dihydro-1,3-thiazol-2-ylthio)-1-(3,4-dihydroxyphenyl)-1-ethanone]",activation of p73,[2],activate p73
"COC(=O)C[C@H](NC(=O)[C@H](C)NC(=O)[C@@H](NC(=O)OCc1ccccc1)C(C)C)C(=O)CF [z-VAD-FMK, reference compound] (Cbz-Val-Ala-Asp(OMe)-CH2F)",CB-7587351-induced apoptosis with pan-caspase inhibitor (sub-G1 assay),"[3]; SW480, HT29, HCT116 p53-/- and HCT116",blocked the effect of CB-7587351 on apoptosis
"CN1CCN(C(=O)/C=C/c2ccc([N+](=O)[O-])o2)CC1 [NSC59984, (E)-1-(4-Methyl-1-piperazinyl)-3-(5-nitro-2-furyl)-2-propen-1-one]",activation of p73,[2],activate p73
"CCOc1cccc2c(C)nc(Nc3nc(=O)c4c([nH]3)CCCC4)nc12 [CB-7587351, 2-(8-Ethoxy-4-methyl-2-quinazolinylamino)-5,6,7,8-tetrahydro-4 (1H)-quinazolinone]",caspase-3/7 activity,[4],increase
same,phosphorylation of γ-H2AX,"[5]; SW480 cells, increased dose, early time points",No phosphorylation
same,genotoxicity,[5]; conclusion from γ-H2AX and DNA-intercalation,little or no genotoxicity
same,c-FLIP expression at the mRNA level,[6],no significant changes
same,DNA-intercalation,[7],no DNA-intercalation was detected
same,synergy with TRAIL on cell viability,[8],synergized with TRAIL
same,"IC50s, cell viability",[9],much lower in cancer cells than those in normal fibroblast MRC-5 cells
same,p53-responsive bioluminescence,"[10]; SW480, DLD1, HCT116 p53-/- and HCT116, dose dependent",strongly induced
same,effect on PG13-luc reporter with overexpression of p73-β or wild-type p53,"[10]; adenovirus infection, then CB-7587351 16 hr",further enhanced
same,PG-13-luciferase reporter after siRNA targeting p73,[10]; p53-KO cancer cells,attenuated
same,cleaved caspase-3,[11],increase
same,colony formation,[12],dramatically reduced
same,TRAIL-induced PARP cleavage,[13],enhanced TRAIL-induced PARP cleavage
same,synergy with TRAIL on cell viability,[14],not in normal cells
same,sub-G1 content and Annexin V levels with overexpression of p73,"[3]; Ad-p73 infection, 48 hr (sub-G1), 24 hours (Annexin)",enhanced the anti-tumor effect
same,sub-G1 content and PARP cleavage after knockdown of p73,"[3]; DLD-1 cells, 72 hr (sub-G1), 48 h (PARP)",abrogated the effect
same,sub-G1 content,"[3]; cancer cells, 48 hr",increase in sub-G1 content
same,selected p53 targets at the mRNA level,[15],slight increase
same,"apoptosis (PARP cleavage, Annexin V) after knockdown of caspase-8",[16],prevented apoptosis
same,c-FLIP degradation after knockdown of CHIP or ITCH,"[1]; SW480, siRNA 48 hr then CB-7587351 8 hr",could not rescue c-FLIP
same,p73-mediated upregulation of c-FLIP protein,"[1]; SW480 cells with overexpression of p73, treatment 8 hr",reduced p73-mediated upregulation of c-FLIP protein
same,c-FLIP protein expression,"[1]; p53-mutant and p53 wild-type cancer cells, Western blot",reduced c-FLIP protein expression
same,p21 and puma expression after knockdown of p73,"[17]; DLD-1 cells, 8 hr",blocked the activation effect
same,endogenous p53 targets at the protein level,"[17]; p53-mutant and wild colorectal cancer cell lines, 16 hr",increased
